Measurements from US20250179028A1, “ACRYLAMIDE COMPOUNDS” (NRG THERAPEUTICS LTD, priority 2022, published 2025).
In brackets after ≈: the same amount, converted by molar mass.

Tests used:
[1] = PBS and FaSSIF solubility; assay type: physicochemical; details: aqueous buffer, kinetic from dmso stock; PBS pH 7.4, 2 hr at 25° C.; read-out: Solubility PBS (pH 7.4)
Experimental: Test compounds were prepared as 10 mM stocks in DMSO and 15 μl samples transferred in duplicate into 1.5 mL glass flat bottom vials (BioTech Solutions). Fasted state simulated intestinal fluid (FaSSIF) or PBS (pH 7.4) was added to each vial to final volume of 500 μl. One PTFE encapsulated stir stick (V&P Scientific) was placed in each vial before sealing with PTFE/SIL plugs (BioTech Solutions). Vials were shaken at 1100 rpm for 2 hr at 25° C. Samples were then filtered through MultiScreen Solvinert filter plates (Millipore) via vacuum filtration. Aliquots of filtrate (5 μl) plus 5 μl DMSO were diluted in 490 μl 50% acetonitrile in water containing internal standard. The filtrate was analysed and quantified against a standard of known concentration using LC-MS/MS. Solubility values of the test compound and control compound were calculated as follows: […]

[2] = tested on: mPTP; experiment: mPTP activity (Ca2+ retention) assay in isolated rat liver mitochondria; assay type: biochemical; details: isolated rat liver mitochondria; average value from multiple experiments (n ≥ 2)
Description: Pharmacological inhibition or modulation of the mPTP can be measured in well characterised ‘Ca^2+ retention’ assays performed in isolated mitochondria. In vitro isolated mitochondria rapidly sequester exogenous Ca^2+ until the intramitochondrial Ca^2+ concentration reaches the threshold for mPTP activation. Once the pore is activated, mitochondrial integrity is compromised and the stored Ca^2+ is released. The distribution of Ca^2+ between extra- and intra-mitochondrial compartments can be measured in real time with the use of membrane-impermeant Ca^2+ sensitive fluorescent dyes. Depending on the configuration of the assay, inhibition or modulation of the mPTP either delays the opening of the pore or increases the concentration of Ca^2+ required to induce mPTP opening.
MPTP activity was measured in mitochondria freshly isolated from female Sprague Dawley (250 to 300 gram) rat livers using the following method. Cervical dislocation was performed on the rat. The liver was then perfused in-situ with ˜40 ml cold Dulbecco's Phosphate Buffered Saline (DPBS) prior to dissection and transferred into 30 ml Isolation Buffer (250 mM Sucrose, 10 mM KCl, 1 mM EGTA, 1 mM EDTA, 25 mM HEPES, adjusted to pH 7.5 with 1 M NaOH). Each lobe of the liver was then removed from the buffer, minced using tweezers and a scalpel into ˜5 mm pieces then transferred into a 50 ml Potterton dounce homogenization tube on ice containing 30 ml ice-cold centrifugation buffer (300 mM Trehalose, 25 mM HEPES, 1 mM EGTA, 1 mM EDTA, 10 mM KCl, adjusted to pH 7.5 with 1 M NaOH and supplemented with 0.1% bovine serum albumin (BSA) and complete protease inhibitor cocktail (one tablet of inhibitor per 50 mls of buffer). Homogenisation was carried out using a teflon pestle at 1800 rpm. The slurry was centrifuged at 800 g for 10 min at 4° C., then the supernatant centrifuged at 10,000 g for 10 min. The pellet was washed once with FLIPR assay buffer (75 mM Mannitol, 25 mM Sucrose, 5 mM Potassium Phosphate Monobasic, 20 mM Tris base, 100 mM KCl, 0.1% BSA adjusted to pH 7.4 with 5M HCl) centrifuged again, then resuspended in FLIPR assay buffer to a concentration of 8.8 mg/ml protein.
Tested compounds (10 mM stock in DMSO) were serially diluted in DMSO in half log steps to generate 10 test concentrations (final concentrations in assay 30 μM to 1 nM). An intermediate dilution of 5 μl DMSO samples into 247 μl FLIPR assay buffer was carried out prior to transfer of 5 μl into duplicate wells of a 384 well polypropylene assay plate. Control wells were 0.5% (v/v) DMSO and 5 μM cyclosporin A.
A stock mitochondria/Fluo5N assay solution was prepared in 5.6 ml FLIPR assay buffer (at RT) supplemented with succinate disodium salt (10 mM), rotenone (1 μM), Fluo5N pentapotassium salt (2 μM) and 1 ml mitochondria suspension, then transferred (15 μl) into the assay plate containing test compounds and incubated for 10 min at RT. Assay plates were then transferred to a FLIPR Tetra plate reader (Molecular Devices). Dye fluorescence was then measured every 3 sec for a total of 10 min. After 12 sec, a 2.5 μl bolus of CaCl2 (75 μM) was added from a source plate containing 675 μM CaCl2 in FLIPR assay buffer. IC50 values for tested compounds were calculated using the fluorescence value collected at the 10 min timepoint with % inhibition calculated using the DMSO control and cyclosporin A values as […] respectively.

[3] = molecular target: CYP2D6 (Homo sapiens (Human), UniProt P10635); experiment: Cytochrome P450 CYP2D6 inhibition in human liver microsomes; assay type: in vitro ADME; details: probe dextromethorphan 2 µM (dextrorphan formation); 1 uM test compound, human liver microsomes; average value from two experiments; negative values = no effective inhibition
Experimental: Studies to assess tested compound mediated inhibition of cytochrome P450 enzyme isoform CYP2D6 were performed using human liver microsomes (BD Gentest) using either a single concentration (1 μM) of test compound or concentration response (0.1, 0.3, 1, 3, 10 and 30 μM) to derive an IC50. Tested compound solutions were prepared from 10 mM stocks in DMSO and diluted to 200 μM in DMSO. Reactions were prepared in a 96 deep well plate by combining 1 μl test compound with 179 μl reaction mixture (100 mM phosphate buffered saline (PBS), 0.2 mg/mL microsomes and 2 μM Dextromethorphan prepared from stocks as detailed below).
The positive control inhibitor, quinidine, was used at a final concentration of 0.5 μM when used at a single concentration. The final concentrations of quinidine used to derive an IC50 were 0, 0.1, 0.3, 1, 3, 10 and 30 μM. Plates were warmed at 37° C. for 15 min before starting reactions with 20 μl 10 mM NADPH solution in PBS and incubated for 20 min at 37° C. The assay is performed in duplicate. Reactions were quenched with 200 μl cold acetonitrile containing internal standards (200 nM labetalol, 200 nM alprazolam and 100 nM tolbutamide). The plate was centrifuged at 4000 rpm for 30 minutes, placed on ice for 20 minutes and then centrifuged at 4000 rpm for 30 minutes again to precipitate protein. 100 μL of the supernatant was transferred to a new plate and diluted with 100 μL pure water before being analysed using UPLC/MS/MS. The products of the transformation for dextromethorphan to dextrorphan was monitored by UPLC-MS/MS. The inhibition of CYP2D6 in human liver microsomes was measured as the percentage decrease in the activity of dextrorphan formation compared to non-inhibited controls (=100% activity). The IC50 value was calculated (test compound concentration which produces 50% inhibition) by using Excel Xlfit.

[4] = Hepatocyte clearance assay, rat; assay type: in vitro ADME; details: cryopreserved primary hepatocytes, average value from two experiments, read-out: Rat heps Clint
Experimental: In vitro clearance studies were performed in primary rat and human hepatocytes (BiolVT). Vials of cryopreserved rat or human hepatocytes were thawed in a 37° C. water bath for 2 min. Cells were transferred into thawing medium (Williams' Medium E containing 30% Percoll, 1×GlutaMAX-1, 15 mM HEPES, 5% fetal bovine serum (FBS), 4 μg/ml insulin, 1 μM dexamethasone), centrifuged at 100 g for 10 min then resuspended in culture medium (Leibovitz's L-15 Medium) at a concentration of 0.5×10^6 viable cells/mL (number of viable cells assessed using AO/PI staining). Hepatocytes (198 μL) were transferred into wells of a 96-well non-coated plate and placed in a 37° C. incubator for 10 min. Test compound solutions were prepared from 10 mM stocks in DMSO, diluted to 100 μM in 50% (v/v in water) acetonitrile. Test compound samples (2 μl) were added to each well of hepatocytes and incubated at 37° C. Samples (25 μl) were collected at t=0, 15, 30, […] and 120 min, mixed with 6 volumes (150 μl) of acetonitrile containing internal standard (100 nM alprazolam, 200 nM caffeine and 100 nM tolbutamide), vortexed for 5 min and centrifuged for 45 min at 3220 g. An aliquot of supernatant (100 μL) was diluted with 100 μL ultra-pure water, and the mixture was used for LC/MS/MS analysis. All incubations were performed in duplicate. Peak areas were determined from extracted ion chromatograms. The slope value, k, was determined by linear regression of the natural logarithm of the remaining percentage of the parent drug vs. incubation time curve. The in vitro half-life (in vitro t½) was determined from the slope value: in vitro t½=0.693/k. Conversion of the in vitro t½ (in min) into the in vitro intrinsic clearance (in vitro CLint, in μL/min/1×10^6 cells) was done using the following equation (mean of duplicate determinations):
[formula] • V=incubation volume (0.2 mL) • N=number of hepatocytes per well (0.1×10^6 cells).

Chain of CYP2D6 (P10635 whole entry, canonical isoform): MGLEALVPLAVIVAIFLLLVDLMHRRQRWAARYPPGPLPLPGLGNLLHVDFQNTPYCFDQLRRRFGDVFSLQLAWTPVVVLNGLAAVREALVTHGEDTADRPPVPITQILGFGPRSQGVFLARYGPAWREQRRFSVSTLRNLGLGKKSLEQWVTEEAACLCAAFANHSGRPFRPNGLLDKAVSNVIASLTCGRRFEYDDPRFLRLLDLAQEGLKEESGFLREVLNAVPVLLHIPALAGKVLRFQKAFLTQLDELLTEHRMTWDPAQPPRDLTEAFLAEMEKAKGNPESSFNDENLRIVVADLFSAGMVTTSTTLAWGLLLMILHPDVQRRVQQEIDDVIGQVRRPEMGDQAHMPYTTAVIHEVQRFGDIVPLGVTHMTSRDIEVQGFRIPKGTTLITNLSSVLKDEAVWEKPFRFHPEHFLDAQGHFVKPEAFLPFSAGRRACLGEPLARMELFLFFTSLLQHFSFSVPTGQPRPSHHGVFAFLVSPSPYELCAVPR

solubility at 2 h [1] [µM]	mPTP Rat liver pIC50 [2]	inhibition at 20 min, 1 µM [3] [%]	hepatocyte CLint at 1 µM [4] [µL/min/1e6 cells]	Compound
		8.27	73.6	O=C(/C=C/c1ccc2c(C(F)(F)F)n[nH]c2c1)NC1CCc2ccccc21 (stereo not shown) [Example 28, (E)-N-(2,3-dihydro-1H-inden-1-yl)-3-(3-(trifluoromethyl)-1H-indazol-6-yl) acrylamide]
	7.1	8.94		CC1Cc2ccccc2C1NC(=O)/C=C/c1ccc2c(C#N)n[nH]c2c1 (stereo not shown) [Example 44, (E)-3-(3-cyano-1H-indazol-6-yl)-N-(2-methyl-2,3-dihydro-1H-inden-1-yl)acrylamide]
	6.6	4.01		CCc1n[nH]c2cc(/C=C/C(=O)NC3CCc4ccccc43)ccc12 (stereo not shown) [Example 32, (E)-N-(2,3-dihydro-1H-inden-1-yl)-3-(3-ethyl-1H-indazol-6-yl)acrylamide]
	7.2	7.3		Cc1n[nH]c2cc(/C=C/C(=O)NC3c4ccccc4CC3C)ccc12 (stereo not shown) [Example 38, (E)-3-(3-methyl-1H-indazol-6-yl)-N-(2-methyl-2,3-dihydro-1H-inden-1-yl)acrylamide]
	6.3	-0.55		O=C(/C=C/c1ccc2c(C3CC3)n[nH]c2c1)NC1CCc2ccccc21 (stereo not shown) [Example 33, (E)-3-(3-cyclopropyl-1H-indazol-6-yl)-N-(2,3-dihydro-1H-inden-1-yl)acrylamide]

The next lines start with the compound.

Compound	solubility at 2 h [1] [µM]	mPTP Rat liver pIC50 [2]	inhibition at 20 min, 1 µM [3] [%]	hepatocyte CLint at 1 µM [4] [µL/min/1e6 cells]
CC(C)c1ccccc1NC(=O)/C=C/c1ccc2oc(=O)[nH]c2c1 [Example 13, (E)-N-(2-isopropylphenyl)-3-(2-oxo-2,3-dihydrobenzo[d]oxazol-5-yl)acrylamide]	5.3 (≈ 1.71 µg/mL)	6.0	3.84	
CC(C)c1ccc(Cl)cc1NC(=O)/C=C/c1ccc2oc(=O)[nH]c2c1 [Example 15, (E)-N-(5-chloro-2-isopropylphenyl)-3-(2-oxo-2,3-dihydrobenzo[d]oxazol-5-yl)acrylamide]	0.03 (≈ 0.0107 µg/mL)	6.9	-0.28	
Cc1c(Cl)cccc1NC(=O)/C=C/c1ccc2oc(=O)[nH]c2c1 [Example 9, (E)-N-(3-chloro-2-methylphenyl)-3-(2-oxo-2,3-dihydrobenzo[d]oxazol-5-yl)acrylamide]	0.6 (≈ 0.197 µg/mL)	7.4	-2.59	
Cc1cccc(C(C)C)c1NC(=O)/C=C/c1ccc2oc(=O)[nH]c2c1 [Example 14, (E)-N-(2-isopropyl-6-methylphenyl)-3-(2-oxo-2,3-dihydrobenzo[d]oxazol-5-yl)acrylamide]	16 (≈ 5.38 µg/mL)	6.5	-0.52	
Cc1c(F)cccc1NC(=O)/C=C/c1ccc2c(c1)NC(=O)C2(C)C [Example 3, (E)-3-(3,3-dimethyl-2-oxoindolin-6-yl)-N-(3-fluoro-2-methylphenyl)acrylamide]	1.75 (≈ 0.592 µg/mL)	6.4	-1.87	
Cc1ccccc1NC(=O)/C=C/c1ccc2oc(=O)[nH]c2c1 [Example 12, (E)-3-(2-oxo-2,3-dihydrobenzo[d]oxazol-5-yl)-N-(o-tolyl)acrylamide]		6.5	3.05	
Cc1cc(F)c(F)cc1NC(=O)/C=C/c1ccc2oc(=O)[nH]c2c1 [Example 16, (E)-N-(4,5-difluoro-2-methylphenyl)-3-(2-oxo-2,3-dihydrobenzo[d]oxazol-5-yl)acrylamide]		6.8	1.72	
Cc1ccc(F)cc1NC(=O)/C=C/c1ccc2oc(=O)[nH]c2c1 [Example 17, (E)-N-(5-fluoro-2-methylphenyl)-3-(2-oxo-2,3-dihydrobenzo[d]oxazol-5-yl)acrylamide]	0.15 (≈ 0.0468 µg/mL)		1.91	
Cc1c(F)cccc1NC(=O)/C=C/c1ccc2c(c1)NC(=O)C21CC1 [Example 4, (E)-N-(3-fluoro-2-methylphenyl)-3-(2′-oxospiro[cyclopropane-1,3′-indolin]-6′-yl)acrylamide]	0.31 (≈ 0.104 µg/mL)	6.5	2.89	
